# Reference: publication PMC6757289, “Design and Characterization of SGK3-PROTAC1, an Isoform Specific SGK3 Kinase PROTAC Degrader” (ACS Chemical Biology, 2019)
# Like-named read-outs stand apart in the source and are kept apart here.
# Legend:
# Assay in all cases: kinase profiling panel
# Format in all cases: biochemical
# [1] = biological target: ROCK 2 (Homo sapiens, UniProt O75116); settings: read-out: % Activity Remaining
# Text: (§1) Protein kinase profiling against a Dundee panel of 140 protein kinases was undertaken at the International Centre for Protein Kinase Profiling. The result for each kinase was presented as a mean kinase activity of the reaction taken in triplicate relative to a control sample treated with DMSO. Assay conditions and abbreviations are available at http://www.kinase-screen.mrc.ac.uk.
# [2] = biological target: T1, ERK8 (Homo sapiens, UniProt Q8TD08); settings: read-out: % Activity Remaining
# T1 sequence (Q8TD08 1-544): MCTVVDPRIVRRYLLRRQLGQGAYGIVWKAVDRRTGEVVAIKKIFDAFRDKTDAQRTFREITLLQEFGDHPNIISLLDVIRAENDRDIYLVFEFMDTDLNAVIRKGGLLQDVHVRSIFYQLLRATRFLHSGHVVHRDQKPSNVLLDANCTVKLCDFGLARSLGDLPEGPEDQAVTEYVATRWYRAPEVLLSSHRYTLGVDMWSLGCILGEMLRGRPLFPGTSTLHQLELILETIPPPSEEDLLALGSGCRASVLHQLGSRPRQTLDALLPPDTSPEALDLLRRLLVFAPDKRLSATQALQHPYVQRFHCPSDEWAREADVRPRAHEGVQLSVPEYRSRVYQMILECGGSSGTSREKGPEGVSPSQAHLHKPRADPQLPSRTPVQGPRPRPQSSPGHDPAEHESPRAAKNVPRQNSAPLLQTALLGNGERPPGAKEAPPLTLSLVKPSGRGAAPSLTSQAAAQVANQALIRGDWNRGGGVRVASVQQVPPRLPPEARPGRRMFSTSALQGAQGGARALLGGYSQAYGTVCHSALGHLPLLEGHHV
# Text: as §1
# [3] = biological target: SmMLCK (Homo sapiens, UniProt Q15746)
# Text: as §1
# [4] = biological target: T2, Aurora A (Homo sapiens, UniProt O14965); settings: read-out: % Activity Remaining
# T2 sequence (O14965 1-403): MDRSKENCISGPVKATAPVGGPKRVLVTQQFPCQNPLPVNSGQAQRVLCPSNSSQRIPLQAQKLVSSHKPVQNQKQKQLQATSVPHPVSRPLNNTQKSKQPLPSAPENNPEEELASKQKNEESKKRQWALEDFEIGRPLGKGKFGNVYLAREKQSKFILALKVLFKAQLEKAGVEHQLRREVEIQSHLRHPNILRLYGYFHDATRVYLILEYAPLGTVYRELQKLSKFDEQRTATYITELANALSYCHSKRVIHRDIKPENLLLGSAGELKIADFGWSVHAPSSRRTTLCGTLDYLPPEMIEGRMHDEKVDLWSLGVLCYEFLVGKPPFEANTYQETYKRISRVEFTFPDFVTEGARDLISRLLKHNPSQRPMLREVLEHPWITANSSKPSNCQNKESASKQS
# Text: as §1
# [5] = biological target: T3, MST2 (Homo sapiens, UniProt Q13188); settings: read-out: % Activity Remaining
# T3 sequence (Q13188 1-491): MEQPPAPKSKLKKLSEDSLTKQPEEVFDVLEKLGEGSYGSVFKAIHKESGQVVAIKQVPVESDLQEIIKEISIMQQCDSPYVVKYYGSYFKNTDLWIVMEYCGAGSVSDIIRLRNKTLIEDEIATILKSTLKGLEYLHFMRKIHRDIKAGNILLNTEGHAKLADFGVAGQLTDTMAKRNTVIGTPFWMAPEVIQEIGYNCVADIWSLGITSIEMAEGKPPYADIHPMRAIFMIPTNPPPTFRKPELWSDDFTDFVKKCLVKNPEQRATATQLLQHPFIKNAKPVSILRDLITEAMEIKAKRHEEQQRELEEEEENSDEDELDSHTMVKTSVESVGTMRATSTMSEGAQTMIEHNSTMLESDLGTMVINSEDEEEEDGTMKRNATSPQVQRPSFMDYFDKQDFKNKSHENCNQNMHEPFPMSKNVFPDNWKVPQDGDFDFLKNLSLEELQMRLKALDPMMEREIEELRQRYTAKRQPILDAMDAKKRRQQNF
# Text: as §1
# Chain of ROCK 2 (O75116 whole entry): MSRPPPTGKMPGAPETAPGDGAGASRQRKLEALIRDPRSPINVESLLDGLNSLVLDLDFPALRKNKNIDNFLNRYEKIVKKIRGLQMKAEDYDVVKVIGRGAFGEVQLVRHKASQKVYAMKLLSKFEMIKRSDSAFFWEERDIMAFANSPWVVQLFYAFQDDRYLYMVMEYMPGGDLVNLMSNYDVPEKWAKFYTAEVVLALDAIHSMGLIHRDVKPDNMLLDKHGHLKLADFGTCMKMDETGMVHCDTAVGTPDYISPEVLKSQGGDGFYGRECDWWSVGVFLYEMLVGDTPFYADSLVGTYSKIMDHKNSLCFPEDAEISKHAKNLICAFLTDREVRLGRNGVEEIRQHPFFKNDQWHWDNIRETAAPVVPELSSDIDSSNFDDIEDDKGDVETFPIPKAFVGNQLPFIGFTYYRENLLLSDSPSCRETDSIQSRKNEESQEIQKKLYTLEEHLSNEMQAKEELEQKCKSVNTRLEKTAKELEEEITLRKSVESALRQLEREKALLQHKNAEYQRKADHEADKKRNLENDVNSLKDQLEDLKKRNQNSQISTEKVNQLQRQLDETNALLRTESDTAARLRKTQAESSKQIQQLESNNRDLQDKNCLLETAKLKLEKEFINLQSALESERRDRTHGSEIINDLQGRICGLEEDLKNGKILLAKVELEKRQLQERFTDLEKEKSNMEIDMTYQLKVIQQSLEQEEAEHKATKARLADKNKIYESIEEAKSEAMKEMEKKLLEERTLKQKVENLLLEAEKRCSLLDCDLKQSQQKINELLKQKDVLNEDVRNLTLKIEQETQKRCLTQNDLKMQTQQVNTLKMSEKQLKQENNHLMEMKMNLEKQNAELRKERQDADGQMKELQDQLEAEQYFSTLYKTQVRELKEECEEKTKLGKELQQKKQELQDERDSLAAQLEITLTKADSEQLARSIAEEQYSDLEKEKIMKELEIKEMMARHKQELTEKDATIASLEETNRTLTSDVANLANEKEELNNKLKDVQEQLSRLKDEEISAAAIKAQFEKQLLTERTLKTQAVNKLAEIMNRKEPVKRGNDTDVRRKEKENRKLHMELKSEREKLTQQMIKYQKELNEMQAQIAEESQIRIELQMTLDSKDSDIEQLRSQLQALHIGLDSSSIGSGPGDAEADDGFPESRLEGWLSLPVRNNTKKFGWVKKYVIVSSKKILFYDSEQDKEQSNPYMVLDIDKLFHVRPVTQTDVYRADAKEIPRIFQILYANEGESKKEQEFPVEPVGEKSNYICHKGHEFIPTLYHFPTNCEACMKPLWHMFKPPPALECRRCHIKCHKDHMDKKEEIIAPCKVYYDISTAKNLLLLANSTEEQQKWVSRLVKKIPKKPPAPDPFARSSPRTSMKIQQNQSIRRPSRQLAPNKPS
# Chain of SmMLCK (Q15746 923-1914): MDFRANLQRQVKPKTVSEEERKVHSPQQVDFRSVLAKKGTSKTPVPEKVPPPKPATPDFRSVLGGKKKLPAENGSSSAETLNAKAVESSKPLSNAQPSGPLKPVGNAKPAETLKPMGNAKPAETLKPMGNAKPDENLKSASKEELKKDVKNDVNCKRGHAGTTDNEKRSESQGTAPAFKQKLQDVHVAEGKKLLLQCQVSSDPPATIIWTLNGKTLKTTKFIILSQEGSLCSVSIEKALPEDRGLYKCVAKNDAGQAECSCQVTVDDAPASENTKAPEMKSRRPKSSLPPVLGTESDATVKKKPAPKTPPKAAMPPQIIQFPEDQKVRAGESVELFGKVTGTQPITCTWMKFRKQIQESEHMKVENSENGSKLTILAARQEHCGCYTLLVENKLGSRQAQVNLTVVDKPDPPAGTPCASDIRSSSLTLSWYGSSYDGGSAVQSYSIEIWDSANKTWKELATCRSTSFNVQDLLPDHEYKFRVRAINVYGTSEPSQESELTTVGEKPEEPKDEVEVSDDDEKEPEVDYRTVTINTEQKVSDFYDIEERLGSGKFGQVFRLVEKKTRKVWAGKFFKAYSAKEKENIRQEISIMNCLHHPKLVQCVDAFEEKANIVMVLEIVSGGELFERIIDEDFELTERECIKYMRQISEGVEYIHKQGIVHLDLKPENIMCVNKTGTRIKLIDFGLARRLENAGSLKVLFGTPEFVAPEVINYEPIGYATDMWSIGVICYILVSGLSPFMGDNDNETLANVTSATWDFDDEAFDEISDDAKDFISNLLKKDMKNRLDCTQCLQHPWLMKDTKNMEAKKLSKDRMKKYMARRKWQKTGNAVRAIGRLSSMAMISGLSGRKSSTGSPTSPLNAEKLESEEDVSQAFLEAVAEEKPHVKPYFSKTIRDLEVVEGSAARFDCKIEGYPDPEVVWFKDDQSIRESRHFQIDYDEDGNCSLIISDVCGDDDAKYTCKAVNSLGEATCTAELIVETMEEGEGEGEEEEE
SMILES,remaining activity at 1 µM ([1]; 1 µM),remaining activity at 1 µM ([2]; 1 µM),remaining activity at 1 µM [3],remaining activity at 1 µM ([4]; 1 µM),remaining activity at 1 µM ([5]; 1 µM),remaining activity at 1 µM [1],remaining activity at 1 µM [2],remaining activity at 1 µM [4],remaining activity at 1 µM [5]
Cc1ccc(F)c(S(=O)(=O)Nc2ccc(-c3nc(OC[C@H]4CN(CCCCCCOCCOCCOCC(=O)N[C@H](C(=O)N5C[C@H](O)C[C@H]5C(=O)NCc5ccc(-c6scnc6C)cc5)C(C)(C)C)CCO4)c4cn[nH]c4n3)cc2)c1 [SGK3-PROTAC1],113%,94%,53%,90%,112%,–,–,–,–
"COc1ccc(Cl)c(S(=O)(=O)Nc2ccc(-c3nc(OC[C@H]4CNCCO4)c4c(C)n[nH]c4n3)cc2)c1 [290-R, reference compound]",–,–,23%,–,–,105%,18%,108%,105%
Cc1ccc(F)c(S(=O)(=O)Nc2ccc(-c3nc(OC[C@H]4CN(CCCCCCOCCOCCOCC(=O)N[C@H](C(=O)N5C[C@@H](O)C[C@H]5C(=O)NCc5ccc(-c6scnc6C)cc5)C(C)(C)C)CCO4)c4cn[nH]c4n3)cc2)c1 [cisSGK3-PROTAC1],119%,86%,71%,91%,100%,–,–,–,–
"Cc1ccc(F)c(S(=O)(=O)Nc2ccc(-c3nc(OC[C@H]4CNCCO4)c4cn[nH]c4n3)cc2)c1 [308-R, reference compound]",–,–,74%,–,–,74%,49%,109%,86%
